Test results reported in US9868742B2, “Substituted imidazo[1,2-b]pyridazines, substituted imidazo[1,5-b] pyridazines, related compounds, and their use in the treatment of medical disorders” (Lysosomal Therapeutics Inc., priority 2016, dated 2018).
In brackets after ≈: the same amount, converted by molar mass.

test: Compound solubility in water; assay type: physicochemical

Row | SMILES | solubility
1 | O=C(NC1CCCc2ccccc21)c1cnc2ccc(Cl)nn12 (stereo not shown) | 17.5 µg/mL (≈ 53.7 µM)
2 | COc1cccc(-c2cc(C)c3ncc(C(=O)NC(C4CC4)C(F)(F)F)n3n2)c1 (stereo not shown) | 1.4 µg/mL (≈ 3.46 µM)
3 | Cc1cc(-c2cccc(C(N)=O)c2)nc2c(C(=O)NC(C3CC3)C(F)(F)F)csc12 (stereo not shown) | 0.4 µg/mL (≈ 0.923 µM)
4 | Cc1nc2cc(-c3cc(C)c4ncc(C(=O)NC(C)C(F)(F)F)n4n3)ccc2o1 (stereo not shown) | 1.5 µg/mL (≈ 3.72 µM)
5 | Cc1cc(-c2ccc3ocnc3c2)nn2c(C(=O)N[C@H](C)C(F)(F)F)cnc12 | 1 µg/mL (≈ 2.57 µM)
6 | Cc1cc(-c2cccc(F)c2)nn2c(C(=O)N[C@@H](C3CC3)C(F)(F)F)ncc12 [(S)—N-(1-Cyclopropyl-2,2,2-trifluoroethyl)-2-(3-fluorophenyl)-4-methylimidazo[1,5-b]pyridazine-7-carboxamide] | 0.2 µg/mL (≈ 0.51 µM)
7 | C#Cc1ccc(NC(=O)c2ncc3c(C)cc(C)nn23)cc1 | 1.8 µg/mL (≈ 6.2 µM)
8 | Cc1cc(-c2ccccn2)nc2c(C(=O)NC(C3CC3)C(F)(F)F)nsc12 (stereo not shown) | 0.7 µg/mL (≈ 1.78 µM)
9 | Cc1cc(-c2ccc(F)cc2C#N)nn2c(C(=O)N[C@@H](C)C(F)(F)F)cnc12 | 1.9 µg/mL (≈ 4.86 µM)
10 | Cc1cc(-c2ccc(F)cc2)nn2c(C(=O)N[C@@H](C)C3CC3)ncc12 | 6.9 µg/mL (≈ 20.4 µM)
11 | Cc1cc(-c2cncc(F)c2)nn2c(C(=O)NC(C3CC3)C(F)(F)F)cnc12 (stereo not shown) | 1.3 µg/mL (≈ 3.3 µM)
12 | Cc1cc(C)c2ncc(C(=O)NC3CCCc4ccccc43)n2n1 (stereo not shown) | 8.8 µg/mL (≈ 27.5 µM)
13 | Cc1cc(-c2cccc(F)c2)nn2c(C(=O)NC(C)(C)C3CC3)cnc12 | 1.9 µg/mL (≈ 5.39 µM)
14 | Cc1cc(-c2ccc3ocnc3c2)nn2c(C(=O)NC(C)C(F)(F)F)cnc12 (stereo not shown) | 1.3 µg/mL (≈ 3.34 µM)
15 | Cc1cc(-c2cccc3ncoc23)nn2c(C(=O)NC(C3CC3)C(F)(F)F)cnc12 (stereo not shown) | 0.3 µg/mL (≈ 0.722 µM)
16 | Cc1cc2ncc(C(=O)Nc3ccc4c(c3)CCC4)n2nc1Cl | 1.5 µg/mL (≈ 4.59 µM)
17 | CCC(NC(=O)c1ncc2c(C)cc(C)nn12)c1ccccc1 (stereo not shown) | 29.6 µg/mL (≈ 96 µM)
18 | O=C(Nc1ccc2c(c1)CCC2)c1cnc2ccc(Cl)nn12 | 0.7 µg/mL (≈ 2.24 µM)
19 | C#CC(C)(C)NC(=O)c1cnc2c(C)cc(-c3ccns3)nn12 | 17.2 µg/mL (≈ 52.9 µM)
20 | Cc1cc(-c2ccc3ocnc3c2)nn2c(C(=O)NC(C)C3CC3)cnc12 (stereo not shown) | 1.4 µg/mL (≈ 3.87 µM)
21 | COc1cccc(-c2cc(C)c3ncc(C(=O)NC(C4CC4)C4CC4)n3n2)c1 | 2.7 µg/mL (≈ 7.17 µM)
22 | C#CC(NC(=O)c1ncc2c(C)cc(-c3cccc(F)c3)nn12)C(F)(F)F (stereo not shown) [2-(3-Fluorophenyl)-4-methyl-N-(1,1,1-trifluorobut-3-yn-2-yl)imidazo[1,5-b]pyridazine-7-carboxamide] | 0.7 µg/mL (≈ 1.86 µM)

Row | SMILES | solubility
23 | Cc1cc(-c2cccc3ocnc23)nn2c(C(=O)NC(C3CC3)C(F)(F)F)cnc12 (stereo not shown) | 1.6 µg/mL (≈ 3.85 µM)
24 | CCCCCO[C@H]1CC[C@H](NC(=O)c2cnc3c(C)cc(C)nn23)CC1 | 3.9 µg/mL (≈ 10.9 µM)
25 | Cc1cc(C)c2ncc(C(=O)Nc3ccc(-c4cocn4)cc3)n2n1 | 1.8 µg/mL (≈ 5.4 µM)
26 | Cc1cc(C)c2ncc(C(=O)Nc3ccc4c(c3)CCC4)n2n1 | 0.9 µg/mL (≈ 2.94 µM)
27 | CCCCCCOC1CCC(NC(=O)c2cnc3cc(C)c(Cl)nn23)CC1 (stereo not shown) | 16.8 µg/mL (≈ 42.8 µM)
28 | Cc1cc(-c2cccc3ncoc23)nn2c(C(=O)NC(C)C(F)(F)F)cnc12 (stereo not shown) | 4.4 µg/mL (≈ 11.3 µM)
29 | Cc1cc(C#N)c(-c2cc(C)c3ncc(C(=O)N[C@@H](C)C(F)(F)F)n3n2)o1 | 0.1 µg/mL (≈ 0.265 µM)
30 | Cc1cc(-c2cccc(F)c2C#N)nn2c(C(=O)N[C@@H](C)C(F)(F)F)cnc12 [(S)-6-(2-Cyano-3-fluorophenyl)-8-methyl-N-(1,1,1-trifluoropropan-2-yl)imidazo[1,2-b]pyridazine-3-carboxamide] | 1.1 µg/mL (≈ 2.81 µM)
31 | Cc1cc(N2CCC(F)(F)C2)nn2c(C(=O)NC(C3CC3)C(F)(F)F)cnc12 (stereo not shown) | 8.2 µg/mL (≈ 20.3 µM)
32 | Cc1cc(-c2cncc(Cl)c2)nn2c(C(=O)N[C@@H](C3CC3)C(F)(F)F)cnc12 | 0.3 µg/mL (≈ 0.732 µM)
33 | Cc1cc(-c2cccnc2)nc2c(C(=O)NC(C3CC3)C(F)(F)F)nsc12 (stereo not shown) | 0.3 µg/mL (≈ 0.765 µM)
34 | Cc1cc(-c2cccc(C(N)=O)c2)nc2c(C(=O)NC(C3CC3)C(F)(F)F)nsc12 (stereo not shown) | 1.4 µg/mL (≈ 3.22 µM)
35 | Cc1cc(-c2cccc(F)c2)nn2c(C(=O)N[C@H](C3CC3)C(F)(F)F)ncc12 [(R)—N-(1-Cyclopropyl-2,2,2-trifluoroethyl)-2-(3-fluorophenyl)-4-methylimidazo[1,5-b]pyridazine-7-carboxamide] | 0.2 µg/mL (≈ 0.51 µM)
36 | Cc1cc(-c2ccc3ocnc3c2)nn2c(C(=O)N[C@@H](C3CC3)C(F)(F)F)cnc12 | 0.5 µg/mL (≈ 1.2 µM)
37 | Cc1cc(C)c2cnc(C(=O)Nc3ccc(-c4cocn4)cc3)n2n1 | 0.4 µg/mL (≈ 1.2 µM)
38 | Cc1cc(-c2ccc(F)cc2C#N)nn2c(C(=O)N[C@@H](C3CC3)C(F)(F)F)cnc12 | 1.2 µg/mL (≈ 2.88 µM)
39 | CCCCCCOC1CCC(NC(=O)c2cnc3c(C)cc(Cl)nn23)CC1 (stereo not shown) | 3.1 µg/mL (≈ 7.89 µM)
40 | Cc1cc(-c2ccc(F)cc2)nn2c(C(=O)N[C@@H](C)C3CC3)cnc12 | 6.5 µg/mL (≈ 19.2 µM)
41 | Cc1cc(-c2ccc(F)cc2)nn2c(C(=O)NC(C)(C)C3CC3)cnc12 | 0.9 µg/mL (≈ 2.55 µM)
42 | Cc1cc(-c2cccc(Cl)n2)nn2c(C(=O)NC(C)C(F)(F)F)cnc12 (stereo not shown) | 3.5 µg/mL (≈ 9.12 µM)
43 | CCC(NC(=O)c1cnc2cc(C)c(Cl)nn12)c1ccccc1 (stereo not shown) | 14.6 µg/mL (≈ 44.5 µM)
44 | C#Cc1ccc(NC(=O)c2cnc3c(C)cc(C)nn23)cc1 | 0.3 µg/mL (≈ 1.03 µM)

Row | SMILES | solubility
45 | CCC(NC(=O)c1cnc2ccc(Cl)nn12)c1ccccc1 (stereo not shown) | 15.4 µg/mL (≈ 49.1 µM)
46 | Cc1cc(-c2ccc(F)cc2)nn2c(C(=O)NC(C3CC3)C(F)(F)F)ncc12 (stereo not shown) | 0.2 µg/mL (≈ 0.51 µM)
47 | Cc1cc(C)c2cnc(C(=O)Nc3ccc4c(c3)CCC4)n2n1 | 2.1 µg/mL (≈ 6.85 µM)
48 | Cc1cc2ncc(C(=O)NC3CCCc4ccccc43)n2nc1Cl (stereo not shown) | 3.6 µg/mL (≈ 10.6 µM)
49 | Cc1cc(C)c2cnc(C(=O)NC(C)(C)C3CC3)n2n1 | 24 µg/mL (≈ 88.1 µM)
50 | CCCCCO[C@H]1CC[C@H](NC(=O)c2cnc3ccc(Cl)nn23)CC1 | 17 µg/mL (≈ 46.6 µM)
51 | Cc1cc(C)c2ncc(C(=O)NC(C)(C)C3CC3)n2n1 | 27.3 µg/mL (≈ 100 µM)
52 | Cc1cc(-c2cccc(F)c2)nn2c(C(=O)NC(C)C(F)(F)F)cnc12 (stereo not shown) | 1.9 µg/mL (≈ 5.19 µM)
53 | Cc1cc(C)c2scc(C(=O)NC(C3CC3)C(F)(F)F)c2n1 (stereo not shown) | 0.1 µg/mL (≈ 0.305 µM)
54 | Cc1cc(-c2ccc3ocnc3c2)nn2c(C(=O)NC(C3CC3)C(F)(F)F)cnc12 (stereo not shown) | 0.2 µg/mL (≈ 0.481 µM)
55 | Cc1cc(-c2ccc(F)cc2C#N)nn2c(C(=O)N[C@H](C)C3CC3)cnc12 | 2.3 µg/mL (≈ 6.33 µM)
56 | Cc1cc(-c2cncc(Cl)c2)nn2c(C(=O)N[C@@H](C3CC3)C(F)(F)F)ncc12 [(S)-2-(5-Chloropyridin-3-yl)-N-(1-cyclopropyl-2,2,2-trifluoroethyl)-4-methylimidazo[1,5-b]pyridazine-7-carboxamide] | 0.7 µg/mL (≈ 1.71 µM)
57 | Cc1cc(-c2cccc(C#N)c2)nn2c(C(=O)NC(C3CC3)C(F)(F)F)cnc12 (stereo not shown) | 0.2 µg/mL (≈ 0.501 µM)
58 | Cc1cc(-c2ccc(F)o2)nn2c(C(=O)NC(C3CC3)C(F)(F)F)cnc12 (stereo not shown) | 0.6 µg/mL (≈ 1.57 µM)
59 | Cc1cc(-c2ccc(F)cc2)nn2c(C(=O)N[C@@H](C)C3CC3)nnc12 | 1 µg/mL (≈ 2.95 µM)
60 | Cc1cc(-c2ccns2)nn2c(C(=O)NC(C)(C)C3CC3)cnc12 | 6.7 µg/mL (≈ 19.6 µM)
61 | Cc1cc(-c2ccccc2C#N)nn2c(C(=O)NC(C3CC3)C(F)(F)F)cnc12 (stereo not shown) | 0.1 µg/mL (≈ 0.25 µM)
62 | Cc1cc(Cl)nn2c(C(=O)Nc3ccc4c(c3)CCC4)cnc12 | 0.3 µg/mL (≈ 0.918 µM)
63 | Cc1cc(-c2cccc(F)c2)nn2c(C(=O)NC(C)(C)C3CC3)ncc12 | 8 µg/mL (≈ 22.7 µM)
64 | Cc1cc(-c2ccc3ncn(C)c3c2)nn2c(C(=O)N[C@H](C3CC3)C(F)(F)F)cnc12 [(R)—N-(1-Cyclopropyl-2,2,2-trifluoroethyl)-8-methyl-6-(1-methyl-1H-benzo[d]imidazol-6-yl)imidazo[1,2-b]pyridazine-3-carboxamide] | 1 µg/mL (≈ 2.33 µM)
65 | CCC(NC(=O)c1cnc2c(C)cc(C)nn12)c1ccccc1 (stereo not shown) | 18.8 µg/mL (≈ 61 µM)
66 | Cc1cc(-c2cccc3ocnc23)nc2c(C(=O)NC(C3CC3)C(F)(F)F)nsc12 (stereo not shown) | 1.1 µg/mL (≈ 2.54 µM)

Row | SMILES | solubility
67 | Cc1cc(N2CCCC(F)(F)C2)nn2c(C(=O)N[C@@H](C3CC3)C(F)(F)F)cnc12 | 1.9 µg/mL (≈ 4.55 µM)
68 | Cc1cc(-c2cccnc2)nc2c(C(=O)NC(C)C3CC3)csc12 (stereo not shown) | 1.4 µg/mL (≈ 4.15 µM)
69 | Cc1cc(-c2ccc3ocnc3c2)nn2c(C(=O)N[C@@H](C)C(F)(F)F)cnc12 | 1.2 µg/mL (≈ 3.08 µM)
70 | Cc1cc(-c2ccc(F)cc2)nn2c(C(=O)NC(C)(C)C3CC3)ncc12 | 1.2 µg/mL (≈ 3.41 µM)
71 | Cc1cc(-c2cccc(F)c2C#N)nn2c(C(=O)N[C@@H](C)C3CC3)cnc12 [(S)-6-(2-Cyano-3-fluorophenyl)-N-(1-cyclopropylethyl)-8-methylimidazo[1,2-b]pyridazine-3-carboxamide] | 0.5 µg/mL (≈ 1.38 µM)
72 | Cc1cc(-c2cccnc2)nc2c(C(=O)NC(C3CC3)C(F)(F)F)csc12 (stereo not shown) | 0.5 µg/mL (≈ 1.28 µM)
73 | Cc1cc(N2CCN(C(C)C)C2=O)nn2c(C(=O)NC(C3CC3)C(F)(F)F)cnc12 (stereo not shown) | 18.3 µg/mL (≈ 43.1 µM)
74 | Cc1cc(-c2ccc(F)cc2C#N)nn2c(C(=O)NC(C)C(F)(F)F)cnc12 (stereo not shown) | 3.9 µg/mL (≈ 9.97 µM)
75 | Cc1cc(-c2ccc(F)cc2)nn2c(C(=O)NC(C)C(F)(F)F)ncc12 (stereo not shown) | 3.2 µg/mL (≈ 8.74 µM)
76 | Cc1cc(-c2ccc(F)cc2C#N)nn2c(C(=O)N[C@H](C)C(F)(F)F)cnc12 | 1.9 µg/mL (≈ 4.86 µM)
77 | Cc1cc(-c2ccns2)nn2c(C(=O)NC(C3CC3)C(F)(F)F)cnc12 (stereo not shown) | 0.5 µg/mL (≈ 1.31 µM)
78 | COc1cccc(-c2cc(C)c3ncc(C(=O)NC(C4CC4)C(F)(F)F)n3n2)n1 (stereo not shown) | 2.2 µg/mL (≈ 5.43 µM)
79 | Cc1cc(-c2cncc(Cl)c2)nn2c(C(=O)N[C@H](C3CC3)C(F)(F)F)cnc12 | 0.3 µg/mL (≈ 0.732 µM)
80 | Cc1cc(-c2cccc(F)c2)nn2c(C(=O)NC(C)C(F)(F)F)ncc12 (stereo not shown) | 3 µg/mL (≈ 8.19 µM)
81 | Cc1cc(-c2occc2C#N)nn2c(C(=O)NC(C3CC3)C(F)(F)F)cnc12 (stereo not shown) | 0.7 µg/mL (≈ 1.8 µM)
82 | Cc1cc(-c2ccc(F)cc2C#N)nn2c(C(=O)N[C@@H](C)C3CC3)cnc12 | 2.6 µg/mL (≈ 7.15 µM)
83 | Cc1cc(-c2cc(C)c3ncc(C(=O)N[C@H](C4CC4)C(F)(F)F)n3n2)sn1 | 3.6 µg/mL (≈ 9.1 µM)
84 | Cc1cc(-c2ccc(F)cc2C#N)nn2c(C(=O)NC(C3CC3)C(F)(F)F)cnc12 (stereo not shown) | 0.7 µg/mL (≈ 1.68 µM)
85 | Cc1cc(-c2cccc(F)c2)nn2c(C(=O)NC(C3CC3)C(F)(F)F)cnc12 (stereo not shown) | 0.03 µg/mL (≈ 0.0765 µM)
86 | Cc1cc(C)c2ncc(C(=O)NC3(C)CCCc4ccccc43)n2n1 (stereo not shown) | 7.2 µg/mL (≈ 21.5 µM)
87 | Cc1cc(C)c2cnc(C(=O)NC3CCCc4ccccc43)n2n1 (stereo not shown) | 38.4 µg/mL (≈ 120 µM)
88 | C#Cc1ccc(NC(=O)c2cnc3ccc(Cl)nn23)cc1 | 15 µg/mL (≈ 50.6 µM)
